The text below walks through data of patent US20230265107A1, “PB2 INHIBITOR, AND PREPARATION METHOD THEREFOR AND USE THEREOF” (priority 2020, published 2023).

Structures are written as SMILES.

The assay deals with virus IFV A/PR/8/34. Put plainly: Cytopathic effect (CPE) method, antiviral activity against influenza virus in MDCK cells, CCK-8 cell viability. The format is cell-based. To be noted: PR/8, MDCK, 120 h, read-out: EC50 (IFV A/PR/8/34) nM.
On to `O=C(O)[C@H]1[C@H]2CC[C@H](CC2)[C@@H]1Nc1nc(-c2c[nH]c3ncc(F)cc23)nn2c(C(F)(F)F)ccc12` [Example 18, (1R,2S,3S,4R)-3-((2-(5-fluoro-1H-pyrrolo[2,3-b]pyridin-3-yl)-7-(trifluoromethyl)pyrrolo[2,1-f][1,2,4]triazin-4-yl)amino)bicyclo[2.2.2]octane-2-carboxylic acid], for which the EC50 was 0.3 nM.

Regarding `O=C(O)[C@@H]1[C@@H](Nc2nc(-c3n[nH]c4ncc(F)cc34)nn3c(C4CC4)ccc23)[C@@H]2CC[C@H]1C1CC12` (stereo partly drawn) [Example 38, (1R,5S,6S,7S)-7-((7-cyclopropyl-2-(5-fluoro-1H-pyrazolo[3,4-b]pyridin-3-yl)pyrrolo[2,1-f][1,2,4]triazin-4-yl)amino)tricyclo[3.2.2.0^2,4]nonane-6-carboxylic acid], the EC50 came to 0.09 nM.

As for `O=C(O)[C@@H]1[C@@H](Nc2nc(-c3c[nH]c4ncc(F)cc34)nn3c(C(F)(F)F)ccc23)[C@@H]2CC[C@H]1C1CC12` (stereo partly drawn) [Example 30, (1R,5S,6S,7S)-7-((2-(5-fluoro-1H-pyrrolo[2,3-b]pyridin-3-yl)-7-(trifluoromethyl)pyrrolo[2,1-f][1,2,4]triazin-4-yl)amino)tricyclo[3.2.2.0^2′4]nonane-6-carboxylic acid], the EC50 came out at 0.37 nM.

With `COCc1ccc2c(N[C@@H]3[C@@H](C(=O)O)[C@H]4CC[C@@H]3C3CC34)nc(-c3c[nH]c4ncc(F)cc34)nn12` (stereo partly drawn) [Example 20, (1R,5S,6S,7S)-7-((2-(5-fluoro-1H-pyrrolo[2,3-b]pyridin-3-yl)-7-(methoxymethyl)pyrrolo[2,1-f][1,2,4]triazin-4-yl)amino)tricyclo[3.2.2.0^2,4]nonane-6-carboxylic acid], the EC50 came out at 0.3 nM.

With `O=C(O)[C@@H]1[C@@H](Nc2nc(-c3n[nH]c4ncc(F)cc34)nn3c(C(F)(F)F)ccc23)[C@@H]2CC[C@H]1C1CC12` (stereo partly drawn) [Example 31, (1R,5S,6S,7S)-7-((2-(5-fluoro-1H-pyrazolo[3,4-b]pyridin-3-yl)-7-(trifluoromethyl)pyrrolo[2,1-f][1,2,4]triazin-4-yl)amino)tricyclo[3.2.2.0^2,4]nonane-6-carboxylic acid], the EC50 was found to be 0.08 nM.

Consider `O=C(O)[C@H]1[C@H]2CC[C@H](CC2)[C@@H]1Nc1nc(-c2c[nH]c3ncc(F)cc23)nn2cc(C3CC3)cc12` [Example 8, (1R,2S,3S,4R)-3-((6-cyclopropyl-2-(5-fluoro-1H-pyrrolo[2,3-b]pyridin-3-yl)pyrrolo[2,1-f][1,2,4]triazin-4-yl)amino)bicyclo[2.2.2]octane-2-carboxylic acid], for which the EC50 was 0.8 nM.

In the case of `COCc1ccc2c(N[C@@H]3[C@@H](C(=O)O)[C@H]4CC[C@@H]3C3CC34)nc(-c3n[nH]c4ncc(F)cc34)nn12` (stereo partly drawn) [Example 32, (1R,5S,6S,7S)-7-((2-(5-fluoro-1H-pyrazolo[3,4-b]pyridin-3-yl)-7-(methoxymethyl)pyrrolo[2,1-f][1,2,4]triazin-4-yl)amino)tricyclo[3.2.2.0^2,4]nonane-6-carboxylic acid], the EC50 came out at 0.24 nM.
